# From patent US4138482A, “3-Cyano-N-(N,N-dimethylaminopropyl)-iminodibenzyl and salts thereof” (Hoffmann-La Roche Inc., priority 1976, dated 1979)
# Counter-ions that a name gives are not always drawn.
# Key:
# [1] = system: serotonin uptake in the synaptosomes of the forebrain of rats; assay: Inhibition of the serotonin uptake in vitro (synaptosomes of the forebrain of rats); format: biochemical, rat; conditions: for IC50: synaptosomes of the forebrain of rats, read-out: ED50 (inhibition of 50%) of serotonin uptake in vitro
# Procedure: 1. Inhibition of the serotonin uptake in vitro
# (§1) The uptake of serotonin in the synaptosomes of the forebrain of rats was tested according to J. Pharmacol. exp.
# [2] = system: serotonin re-uptake ("membrane pump"); assay: Inhibition of the serotonin re-uptake in vivo (action of the "membrane pump"); design: species or system rat; conditions: for ED50: Rattus norvegicus, "membrane pump", Biochem. Pharmacol. 20, 707, 1971
# [3] = system: serotonin uptake in the synaptosomes of the forebrain of rats; assay: Inhibition of the serotonin uptake ex vivo; format: in vivo, rat; conditions: for ED50: Rattus norvegicus, ip, injected intraperitoneally, serotonin uptake measured after 1 hour, rats
# Procedure: as §1
# 2. Inhibition of the serotonin uptake ex vivo
# An analogous experimental procedure to that given under 1 was utilized. The test substances were, however, injected intraperitoneally; the serotonin uptake was measured after 1 hour. Untreated rats were used as the controls.
# [4] = system: serotonin uptake in blood platelets of the rat; assay: Inhibition of the serotonin uptake in vivo (blood platelets); conditions: ip; for inhibition at 5 mg/kg: Rattus norvegicus, Platelet, 5.0 mg/kg intraperitoneally twice daily over 4 days, 12 hours after last administration, read-out: Inhibition in % of the control; for Serotonin in mmol/mg. of protein: 5 mg/kg
# Procedure: 5. Inhibition of the serotonin uptake in vivo
# Rats were given twice daily over a period of 4 days an intraperitoneal injection of 5.0 mg. of test substance per kg. and 12 hours after the last administration the rats were killed. Serotonin was determined spectrofluorimetrically as described in J. Pharmacol. exp.
# [5] = system: serotonin uptake in blood platelets of the rat; assay: Inhibition of the serotonin uptake in vitro (blood platelets); format: cell-based
# Procedure: 4. Inhibition of the serotonin uptake in vitro
# 0.5 Ml. of blood plasma was treated with different concentrations of test substance in 50 μl of physiological sodium chloride solution. After incubating at 37° C. for 5 minutes, serotonin (C^14; 0.1 μM) was added and the mixture was incubated at 37° C. for an additional 5 minutes. The serotonin concentration was determined by means of a C^14 measuring apparatus. A control experiment in which no test substance is used was also carried out.
# Solubility = format: physicochemical; conditions: free base
# [6] = system: neuronal serotonin uptake; assay: Antidepressive activity / inhibition of the neuronal serotonin uptake in animal experiments; format: in vivo
# Text: The compound of formula I and its pharmaceutically acceptable acid addition salts, are therefore useful, for example, for the treatment of depressions of endogenous or exogenous origin. More specifically, they are useful as antidepressants.
# [7] = Anticholinergic side-effects; conditions: for example mouth dryness, constipation, tachycardia and/or accommodation disorders
"solubility in organic solvents (Solubility; dimethylsulfoxide, dimethylformamide, chlorinated hydrocarbons (chloroform, methylene chloride), alkanols (methanol, ethanol), ether and benzene)",Compound,IC50 [1],ED50 [2],ED50 [3],inhibition at 5 mg/kg [4],Serotonin in mmol/mg. of protein [4],"times greater activity than substance B ([1]; versus known substance B, synaptosomes)","times greater activity than substance C ([1]; versus known substance C, synaptosomes)",times greater activity than substance B ([5]; versus known substance B),times greater activity than substance C ([5]; versus known substance C),"as active as substance B in times smaller doses ([2]; versus known substance B, in vivo re-uptake)","as active as substance C in times smaller doses ([2]; versus known substance C, in vivo re-uptake)","as active as substance B in times smaller doses ([3]; versus known substance B, ex vivo)","as active as substance C in times smaller doses ([3]; versus known substance C, ex vivo)",solubility in water (Solubility; water),antidepressive activity [6],inhibition of the neuronal serotonin uptake [6],anticholinergic side-effects [7]
–,"CN(C)CCCN1c2ccccc2CCc2ccccc21 [Substance B, N-(N,N-Dimethylaminopropyl)-iminodibenzyl hydrochloride, reference compound]",0.078 µM,12.8 mg/kg,19 mg/kg,14%,9.72 ± 2.12 mmol/mg. of protein,–,–,–,–,–,–,–,–,–,–,–,–
–,"CN(C)CCCN1c2ccccc2CCc2ccc(C#N)cc21 [Substance A, 3-Cyano-N-(N,N-dimethylaminopropyl)-iminodibenzyl hydrochloride]",0.0015 µM,0.7 mg/kg,0.9 mg/kg,61%,4.09 ± 1.30 mmol/mg. of protein,52 times,4.2 times,130 times,20 times,18 times,9 times,21 times,2.4 times,–,–,–,–
relatively good solubility,"CN(C)CCCN1c2ccccc2CCc2ccc(C#N)cc21 [3-cyano-N-(N,N-dimethylaminopropyl)-iminodibenzyl]",–,–,–,–,–,–,–,–,–,–,–,–,–,soluble in water with relative difficulty,strong antidepressive activity,extraordinarily strong inhibition of the neuronal serotonin uptake,confined to a minimum
